For this test, the system named is MC-38 colon cancer. The test is described as follows: Anti-tumor experiment in MC-38 mouse model (subcutaneous xenograft tumor of MC-38 colon cancer in mice). Conditions: for TV (mm^3) on day 0 Mean ± SD: day 0 (baseline at grouping); for TV (mm^3) on day 0 Mean ± SD / TV (mm^3) on day 12 Mean ± SD / TV (mm^3) on day 18 Mean ± SD: female C57BL/6 mice; for TV (mm^3) on day 0 Mean ± SD / TV (mm^3) on day 12 Mean ± SD / TV (mm^3) on day 18 Mean ± SD / TGI (%): i.g., anlotinib 1 mg/kg qd, TLR7 agonist 20 mg/kg tiw, 2 w; for TGI (%): tumor growth inhibition from tumor weight vs control group at end of experiment. In kind it is in vivo. As for the experimental part:
In Example 1, the TLR7 agonist is selected from
[drawing 58] and anlotinib is selected fromanlotinib dihydrochloride.
The MC-38 is a colon cancer cell of mouse from Jiangsu Cyto Biotechnology Co., Ltd.
Subcutaneously grafted tumor cells of MC-38 colon cancer (concentration: 2×10^6/mL×0.2 mL/mouse) were inoculated into female C57BL/6 mice at the right side armpit (the site to be inoculated was shaved before inoculating) in a sterile environment, and passaged using a block insertion method. The C57BL/6 mice were 16-18 g in weight, and the breeding environment was SPF level. The diameter of the C57BL/6 xenograft tumor was measured using a vernier caliper, and the mice were randomized into 4 groups when the tumors grew to 100-300 mm^3 (12 mice for control group and 6 mice each for other groups): • i. Control group (blank control); • ii. Monotherapy group: anlotinib, with normal saline as vehicle; • iii. Monotherapy group: TLR7 agonist, with ethanol+tween 80+normal saline (v:v:v=5:5:90) as vehicle; • iv.
The administration method of the combination therapy group is consistent with that of the monotherapy group.
Weights and diameter of the tumor were measured every three days, and the behavior of mice was observed daily. After the experiment was completed, the tumors were removed, weighed and photographed.
The tumor volume and the tumor growth inhibition were calculated using the following formulas: Tumor volume (TV)=(L×W^2)/2.
The TGI (%), as a value of efficacy, was substituted into the Jin zhengjun's formula q=Eab/(Ea+Eb−Ea×Eb), where Ea and Eb represent the efficacy of medicaments used alone, and Eab represents the efficacy of combined use.

SMILES strings stand for the structures.

We go through two compounds from US12195468B2, “TLR7 agonist for treating colorectal cancer and pharmaceutical combination thereof” (CHIA TAI TIANQING PHARMACEUTICAL GROUP CO., LTD., priority 2018, dated 2025).

In the case of `CCCCOc1nc(N)c2[nH]cc(Cc3ccc(CN4CCCC4)cc3)c2n1` [TLR7 agonist], the “TV (mm^3) on day 0 Mean ± SD” value is listed as 143.93 ± 47.74 mm^3, the “TV (mm^3) on day 12 Mean ± SD” value is 427.88 ± 161.31 mm^3, the “TV (mm^3) on day 18 Mean ± SD” value worked out at 747.63 ± 347.13 mm^3 and the “TGI (%)” value came out at 39%. The “effect on growth of MC-38 tumor (in words)” value (summary of Table 2) is listed as “can inhibit the growth of MC-38 tumor”.

With `COc1cc2c(Oc3ccc4[nH]c(C)cc4c3F)ccnc2cc1OCC1(N)CC1` [anlotinib, 1-[[[4-(4-fluoro-2-methyl-1H-indol-5-yl)oxy-6-methoxyquinolin-7-yl]oxy]methyl]cyclopropylamine, reference compound], the “TV (mm^3) on day 0 Mean ± SD” value amounted to 143.28 ± 45.46 mm^3, the “TV (mm^3) on day 12 Mean ± SD” value stood at 427.30 ± 135.63 mm^3, the “TV (mm^3) on day 18 Mean ± SD” value turned out to be 900.32 ± 346.06 mm^3 and the “TGI (%)” value is reported as 33%.
